# Data: PubChem BioAssay AID330 (DTP/NCI, 2004)
# Values joined by “and” are separate entries in the source; they are usually repeats but may differ in a detail not shown here. Equal values may be shown once. Inconclusive results and toxic doses are left out.
# Tested on: P388 leukemia ip, CD2F1 mice, survival T/C
# Assay: NCI In Vivo Anticancer Drug Screen. Data for tumor model P388 Leukemia (intraperitoneal) in CD2F1 (CDF1) mice
# Conditions: endpoint: median survival time, higher = longer survival
# How it was run: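 Mice carrying the transplanted tumor received test compound or vehicle. Survival was recorded in each group, and the value is the treated-group measurement divided by that of the vehicle-treated control group.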
# [1] = dose: 50.0 mg/kg/injection, schedule: Q01DX005 (ip), vehicle: saline with Tween-80
# [2] = dose: 100.0 mg/kg/injection, schedule: Q01DX005 (ip), vehicle: saline with Tween-80
# [3] = dose: 200.0 mg/kg/injection, schedule: Q01DX005 (ip), vehicle: saline with Tween-80
# [4] = dose: 60.0 mg/kg/injection, schedule: Q01DX005 (ip), vehicle: saline
# [5] = dose: 120.0 mg/kg/injection, schedule: Q01DX005 (ip), vehicle: saline
# [6] = dose: 240.0 mg/kg/injection, schedule: Q01DX005 (ip), vehicle: saline
# [7] = dose: 100.0 mg/kg/injection, schedule: Q01DX009 (ip), vehicle: saline with Tween-80
# [8] = dose: 200.0 mg/kg/injection, schedule: Q01DX009 (ip), vehicle: saline with Tween-80
# [9] = dose: 400.0 mg/kg/injection, schedule: Q01DX009 (ip), vehicle: saline with Tween-80
# [10] = dose: 50.0 mg/kg/injection, schedule: Q01DX005 (ip), vehicle: saline
# [11] = dose: 100.0 mg/kg/injection, schedule: Q01DX005 (ip), vehicle: saline
# [12] = dose: 200.0 mg/kg/injection, schedule: Q01DX005 (ip), vehicle: saline
# [13] = dose: 100.0 mg/kg/injection, schedule: Q01DX001 (ip), vehicle: Klucel (hydroxypropylcellulose) (HPC)
# [14] = dose: 200.0 mg/kg/injection, schedule: Q01DX001 (ip), vehicle: Klucel (hydroxypropylcellulose) (HPC)
structure (smiles),measurement,setting,value
CCOC1=NC2C(O1)C1C3C2C13 (stereo not drawn),T/C,[1],103 % of control
same,T/C,[2],105 % of control
same,T/C,[3],105 % of control
COc1cc(OC)c(NC(=O)N(NC(=O)NNc2ccccc2)c2ccccc2)cc1Cl,T/C,"dose: 50.0 mg/kg/injection, schedule: Q01DX005 (ip), vehicle: Klucel (hydroxypropylcellulose) (HPC)",100 % of control
same,T/C,"dose: 100.0 mg/kg/injection, schedule: Q01DX005 (ip), vehicle: Klucel (hydroxypropylcellulose) (HPC)",100 % of control
same,T/C,"dose: 200.0 mg/kg/injection, schedule: Q01DX005 (ip), vehicle: Klucel (hydroxypropylcellulose) (HPC)",95 % of control
CCOC(=O)C1CN2C(=O)CCC2C1=O (stereo not drawn),T/C,[4],104 % of control
same,T/C,[5],103 % of control
same,T/C,[6],103 % of control
CC(/C=C/c1ccccc1)=N\Nc1ccccc1,T/C,"dose: 50.0 mg/kg/injection, schedule: Q01DX009 (ip), vehicle: saline with Tween-80",118 % of control
same,T/C,[7],110 % of control and 112 % of control
same,T/C,"dose: 132.0 mg/kg/injection, schedule: Q01DX009 (ip), vehicle: saline with Tween-80",100 % of control
same,T/C,[8],100 % of control and 110 % of control and 121 % of control
same,T/C,"dose: 300.0 mg/kg/injection, schedule: Q01DX009 (ip), vehicle: saline with Tween-80",107 % of control
same,T/C,[9],106 % of control
Cc1ccc(NC(=O)c2ccc([N+](=O)[O-])cc2)c(C)c1,T/C,[7],100 % of control
same,T/C,[8],100 % of control
same,T/C,[9],110 % of control
CC(C)CC1N=C(N(C)N=O)OP1(=O)NNc1ncccn1 (stereo not drawn),T/C,[4],97 % of control
same,T/C,[5],102 % of control
same,T/C,[6],99 % of control
Nc1ccc(NCCC2CCCN3CCCCC23)c2c(=O)c3ccccc3sc12 (stereo not drawn),T/C,"dose: 32.5 mg/kg/injection, schedule: Q01DX005 (ip), vehicle: saline with Tween-80",100 % of control
same,T/C,"dose: 65.0 mg/kg/injection, schedule: Q01DX005 (ip), vehicle: saline with Tween-80",100 % of control
same,T/C,"dose: 80.0 mg/kg/injection, schedule: Q01DX005 (ip), vehicle: saline with Tween-80",95 % of control
same,T/C,"dose: 130.0 mg/kg/injection, schedule: Q01DX005 (ip), vehicle: saline with Tween-80",101 % of control
same,T/C,"dose: 160.0 mg/kg/injection, schedule: Q01DX005 (ip), vehicle: saline with Tween-80",104 % of control
same,T/C,"dose: 260.0 mg/kg/injection, schedule: Q01DX005 (ip), vehicle: saline with Tween-80",109 % of control
CC(=O)C1(O)Cc2c(O)c3c(c(O)c2C(OC2CC(N)C(O)C(C)O2)C1)C(=O)c1ccccc1C3=O (stereo not drawn),T/C,"dose: 0.03 mg/kg/injection, schedule: Q01DX009 (ip), vehicle: water",116 % of control
same,T/C,"dose: 0.1 mg/kg/injection, schedule: Q01DX009 (ip), vehicle: water",150 % of control and 155 % of control and 158 % of control
same,T/C,"dose: 0.12 mg/kg/injection, schedule: Q01DX005 (ip), vehicle: water",151 % of control
same,T/C,"dose: 0.15 mg/kg/injection, schedule: Q04DX003 (ip), vehicle: water",106 % of control
same,T/C,"dose: 0.2 mg/kg/injection, schedule: Q01DX009 (ip), vehicle: water",167 % of control and 171 % of control and 183 % of control
same,T/C,"dose: 0.21 mg/kg/injection, schedule: Q04DX003 (ip), vehicle: water",166 % of control
same,T/C,"dose: 0.25 mg/kg/injection, schedule: Q01DX005 (ip), vehicle: water",164 % of control
same,T/C,"dose: 0.3 mg/kg/injection, schedule: Q04DX003 (ip), vehicle: water",114 % of control
same,T/C,"dose: 0.36 mg/kg/injection, schedule: Q04DX003 (ip), vehicle: water",170 % of control
same,T/C,"dose: 0.39 mg/kg/injection, schedule: Q01DX009 (ip), vehicle: water",170 % of control
same,T/C,"dose: 0.4 mg/kg/injection, schedule: Q01DX009 (ip), vehicle: water",205 % of control
same,T/C,"dose: 0.5 mg/kg/injection, schedule: Q01DX005 (ip), vehicle: water",180 % of control
same,T/C,"dose: 0.5 mg/kg/injection, schedule: Q01DX005 (oral), vehicle: water",104 % of control
same,T/C,"dose: 0.6 mg/kg/injection, schedule: Q04DX003 (ip), vehicle: water",118 % of control
same,T/C,"dose: 0.78 mg/kg/injection, schedule: Q01DX009 (ip), vehicle: water",173 % of control
same,T/C,"dose: 1.0 mg/kg/injection, schedule: Q01DX005 (ip), vehicle: water",114 % of control
same,T/C,"dose: 1.0 mg/kg/injection, schedule: Q01DX005 (oral), vehicle: water",107 % of control
same,T/C,"dose: 1.3 mg/kg/injection, schedule: Q01DX001 (ip), vehicle: water",97 % of control
same,T/C,"dose: 1.8 mg/kg/injection, schedule: Q01DX001 (ip), vehicle: water",97 % of control
same,T/C,"dose: 2.0 mg/kg/injection, schedule: Q01DX005 (oral), vehicle: water",112 % of control
same,T/C,"dose: 2.4 mg/kg/injection, schedule: Q04DX003 (ip), vehicle: water",152 % of control and 174 % of control
same,T/C,"dose: 4.0 mg/kg/injection, schedule: Q01DX005 (oral), vehicle: water",152 % of control
same,T/C,"dose: 4.8 mg/kg/injection, schedule: Q04DX003 (ip), vehicle: water",102 % of control and 106 % of control
same,T/C,"dose: 8.0 mg/kg/injection, schedule: Q01DX005 (oral), vehicle: water",107 % of control
same,T/C,"dose: 9.6 mg/kg/injection, schedule: Q04DX003 (ip), vehicle: water",96 % of control
COc1ccc2ncc(C)c(CO)c2c1,T/C,[1],116 % of control
same,T/C,[2],102 % of control
same,T/C,[3],98 % of control
Oc1ccc(C2c3ccccc3Oc3ccccc32)c2ccccc12,T/C,"dose: 100.0 mg/kg/injection, schedule: Q01DX001 (ip), vehicle: gum acacia",93 % of control
same,T/C,"dose: 200.0 mg/kg/injection, schedule: Q01DX001 (ip), vehicle: gum acacia",105 % of control
same,T/C,"dose: 400.0 mg/kg/injection, schedule: Q01DX001 (ip), vehicle: gum acacia",101 % of control
C[n+]1cc(-c2ccccc2)cc(-c2ccccc2)c1,T/C,"dose: 3.12 mg/kg/injection, schedule: Q01DX005 (ip), vehicle: Klucel (hydroxypropylcellulose) (HPC)",104 % of control
same,T/C,"dose: 3.12 mg/kg/injection, schedule: Q01DX005 (ip), vehicle: saline",103 % of control
same,T/C,"dose: 6.25 mg/kg/injection, schedule: Q01DX005 (ip), vehicle: Klucel (hydroxypropylcellulose) (HPC)",109 % of control
same,T/C,"dose: 6.25 mg/kg/injection, schedule: Q01DX005 (ip), vehicle: saline with Tween-80",105 % of control
same,T/C,"dose: 6.25 mg/kg/injection, schedule: Q01DX005 (ip), vehicle: saline",97 % of control
same,T/C,"dose: 12.5 mg/kg/injection, schedule: Q01DX005 (ip), vehicle: Klucel (hydroxypropylcellulose) (HPC)",104 % of control
same,T/C,"dose: 12.5 mg/kg/injection, schedule: Q01DX005 (ip), vehicle: saline with Tween-80",100 % of control
same,T/C,"dose: 12.5 mg/kg/injection, schedule: Q01DX005 (ip), vehicle: saline",96 % of control
same,T/C,"dose: 25.0 mg/kg/injection, schedule: Q01DX005 (ip), vehicle: saline with Tween-80",96 % of control
Cc1c(-c2ccccc2)oc(=O)c(Cl)c1N(c1ccccc1)c1ccccc1,T/C,[1],93 % of control
same,T/C,[2],98 % of control
same,T/C,[3],90 % of control
CC(C)C(N)C(=O)NC(C(=O)NS(=O)(=O)c1ccc(N)cc1)C(C)C (stereo not drawn),T/C,[10],99 % of control
same,T/C,[11],93 % of control
same,T/C,[12],98 % of control
O=C1OC(=O)C2C3C=CC(C4C=CC43)C12 (stereo not drawn),T/C,"dose: 25.0 mg/kg/injection, schedule: Q01DX009 (ip), vehicle: Klucel (hydroxypropylcellulose) (HPC)",106 % of control
same,T/C,"dose: 50.0 mg/kg/injection, schedule: Q01DX009 (ip), vehicle: Klucel (hydroxypropylcellulose) (HPC)",115 % of control
same,T/C,"dose: 100.0 mg/kg/injection, schedule: Q01DX009 (ip), vehicle: Klucel (hydroxypropylcellulose) (HPC)",115 % of control
same,T/C,"dose: 200.0 mg/kg/injection, schedule: Q01DX009 (ip), vehicle: Klucel (hydroxypropylcellulose) (HPC)",97 % of control
COc1ccccc1-n1c(=O)c(N=Nc2ccccc2)c(O)n(-c2ccccc2Cl)c1=S,T/C,[13],97 % of control
same,T/C,[14],95 % of control
same,T/C,"dose: 400.0 mg/kg/injection, schedule: Q01DX001 (ip), vehicle: Klucel (hydroxypropylcellulose) (HPC)",94 % of control
COC1(CO)OCC(O)C(O)C1O (stereo not drawn),T/C,[10],91 % of control
same,T/C,[11],93 % of control
same,T/C,[12],101 % of control
CCCCOP(=O)(O)OCCCC,T/C,[13],111 % of control
same,T/C,[14],105 % of control
CCOC(=O)CCCCSCCCCC(=O)OCC,T/C,"dose: 100.0 mg/kg/injection, schedule: Q01DX001 (ip), vehicle: saline with Tween-80",100 % of control
same,T/C,"dose: 200.0 mg/kg/injection, schedule: Q01DX001 (ip), vehicle: saline with Tween-80",100 % of control
same,T/C,"dose: 400.0 mg/kg/injection, schedule: Q01DX001 (ip), vehicle: saline with Tween-80",100 % of control
